Source: US5225425A, “Bis-aryl amide antagonists of platelet activating factor” (American Cyanamid Company, priority 1992, dated 1993)
Values joined by “and” are separate entries in the source; they are usually repeats but may differ in a detail not shown here. Equal values may be shown once.

Tests used:
[1] = target: T1, PAF receptor (Oryctolagus cuniculus, UniProt G1TEI7); test: Inhibition of PAF induced platelet aggregation in rabbit platelet rich plasma; type: cell-based, rabbit (New Zealand White)
T1 construct: centrifuged at 800 rpm for 10-15 minutes at room temperature to recover the platelet rich plasma (PRP); from tissue; host or cells: platelets in platelet rich plasma from blood of male New Zealand White rabbits
T1 sequence (G1TEI7 1-342): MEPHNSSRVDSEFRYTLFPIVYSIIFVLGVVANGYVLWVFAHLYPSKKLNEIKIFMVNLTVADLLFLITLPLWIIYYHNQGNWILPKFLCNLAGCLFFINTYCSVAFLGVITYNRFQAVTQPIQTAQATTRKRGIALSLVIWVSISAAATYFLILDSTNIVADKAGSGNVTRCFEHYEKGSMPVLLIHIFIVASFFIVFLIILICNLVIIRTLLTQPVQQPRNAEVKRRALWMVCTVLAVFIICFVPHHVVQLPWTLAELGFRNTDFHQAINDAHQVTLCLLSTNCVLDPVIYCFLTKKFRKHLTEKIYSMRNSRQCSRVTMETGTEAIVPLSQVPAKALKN
Experimental: Test compounds are evaluated as PAF receptor antagonists in vitro by measuring inhibition of PAF (platelet activating factor) induced platelet aggregation. Platelet aggregation is measured by a modification of the method described in […], et. al., J. Med. Chem., 27 1174, 1984. […] All syringes and pipets are plastic. The blood is gently mixed and immediately centrifuged at 800 rpm for 10-15 minutes at room temperature to recover the platelet rich plasma (PRP). Platelet poor plasma (PPP) is prepared by centrifuging PRP at 2800 rpm for 10 minutes at room temperature. Dilutions (1:3000) of PRP in Isotone diluent are made and platelet counts are determined on a Coulter Thrombocounter which is standardized with platelet reference standards (Interscience Platelet Control, Portland, Oreg.). PRP platelet counts are adjusted to approximately 400,000-500,000 platelets/μl by the addition of PPP. L-PAF (Platelet Activating Factor) is obtained from Calbiochem. […] All solutions are made up in plastic tubes, stored on ice and protected from heat and light. Solutions are prepared fresh or frozen at -20° C. and used within 48 hours. Incubation mixtures consisted of 400 μl PRP, 50 μl of saline diluent or test compound and 50 μl of PAF agonist. More specifically, 400μl of PRP is stabilized in a cuvette for 1-2 minutes at 37° C. in the aggregometer to achieve a stable baseline, then 50 μl of saline or test compound is added and incubated for 5 minutes before addition of the challenge concentration of pAF. A submaximal concentration is determined from the dose response curve for PAF for that experiment. In general, the challenge concentration is 5E-8 or 1E-7M. Aggregation is monitored for 5 minutes. Samples containing test compound or diluent are run simultaneously for comparison. Test compounds are initially evaluated at a screening concentration of 1E-5M. […] The recording equipment consists of a dual channel Chronolog aggregometer connected to a dual channel 10MV full scale deflection Omniscribe chart recorder (Houston Instruments). The chart recorder is calibrated daily with the use of a suspension of Bio-Rad latex beads (S-X 12 400 mesh) which has a density slightly greater than rabbit PRP. […] These limits defined a full scale deflection. The aggregation traces are analyzed by a digitizing method (C. Kohler and B. Zoltan, J. Pharm. Methods, 12, 113, 1984) with x, y coordinate data stored in a computer file. A suitable program computes parameters of interest such as the magnitude of aggregation.

[2] = system: PAF; test: PAF induced lethality in mice; type: in vivo; details: PAF 150 μg/kg IV
Experimental: PAF given I.V. to mice causes an immediate hypotensive shock leading to death in 1 hour or less. […] Animals alive after 2 hours are counted and the activity of test compounds expressed as % survival corrected for any control (saline treated) animals which survived the PAF challenge.

[3] = system: LPS endotoxin; test: High dose acute mouse endotoxemia (LPS endotoxin induced mortality); type: in vivo, Male Balb/c mice; details: for % Survival / survivors/total: i.p., LPS 50 mg/kg ip
Excerpt: (§1) Endotoxin administration produces a shock-like state characterized by vascular permeability changes, hypotension, neutropenia, thrombocytopenia,multiple organ damage and death. The major mediators released after endotoxin injection are TNF (tumor necrosis factor), PAF (platelet activating factor) and […] (interleukin I). PAF administration mimics the signs and symptoms of endotoxin induced shock and death and endotoxin also induces the release of PAF. Therefore, the effects of endotoxin should be blocked with a PAF antagonist.
(§2) Male Balb/c mice (approximately 20 g) are obtained from Charles River Laboratories and used after a one-two week acclimation period. Animals are given (ip) test compound dissolved in saline or water (sonicated and heated) at different time intervals prior to and after the ip injection of endotoxin (usually 2 hours before LPS endotoxin, and 3-4 hours after). Sigma E. Coli endotoxin, 0111:B4, phenol extraction, catalog #L2630 is used for these studies.
This LD value is approximately 50 mg/kg i.p. The number of survivors in each group (control or treated with test compound) is recorded after 24, 48 or 72 hours and the treated groups (receiving test compound and endotoxin) are compared with the untreated, control group (receiving endotoxin only) or saline control (receiving saline and endotoxin).
LPS Endotoxin challenge = 50 mg/kg ip
Test cpd given 2 hrs. before and 3-4 hrs. after LPS challenge on day 0,
followed by BID dosing for 3-4 days.

[4] = system: LPS endotoxin; test: Low dose, chronic mouse endotoxemia (LPS endotoxin); type: in vivo, Male Balb/c mice; details: dose 10 mg/kg i.p.; day 6; LPS 20 mg/kg i.p.
Excerpt: as §1, §2
For the chronic endotoxin shock model, a lower dose of endotoxin is administered (generally 15 to 20 mg/kg i.p). This dose gives an LD80 in two to four days following LPS administration. Test compounds are given 2 hours before LPS and 3-4 hours after on the first day, followed by 3 or 4 consecutive days of BID dosing. The number of survivors in each group is recorded each day for a period of 5 to 7 days.
All mice challenged with LPS endotoxin = 20 mg/kg i.p.
CL test cpd given 2 hours before and 3-4 hours after LPS challenge on day
0, followed by BID dosing for 3-4 days.

Q: How did the IC50 ([1]; PAF challenge 5.0000E-08 M) turn out when CCCCCCCCCCCCCCOc1cccc(CC(=O)Nc2cccc(C[n+]3csc(C)c3)c2)c1.[Br-] [5-methyl-3-[[3-[[[3-(tetradecyloxy)phenyl]acetyl]amino]phenyl]methyl]thiazolium bromide] was run?
A: 0.49 µM and 1.27 µM

Q: What about the IC50 ([1]; PAF challenge 5E-9 M) of the same molecule?
A: 1.06 µM

Q: What about the inhibition at 10 µM ([1]; dose .00001 M, PAF challenge 5E-9 M, read-out: % INH of PAF induced platelet aggregation) of the same molecule?
A: 100%

Q: And the “% Survival” value ([2]; 5 mg/kg P.O.)?
A: 40%

Q: What about the “% Survival” value ([2]; 20 mg/kg P.O.) of the same molecule?
A: 59%

Q: What about the “% Survival” value ([3]; day 0) of the same molecule?
A: 100%

Q: What about the survivors/total ([3]; day 0) of the same molecule?
A: 30/30

Q: And the “% Survival” value ([3]; day 1)?
A: 40%

Q: What about the survivors/total ([3]; day 1) of the same molecule?
A: 12/30

Q: And the “% Survival” value ([3]; day 2)?
A: 13%

Q: And the survivors/total ([3]; day 2)?
A: 4/30

Q: And the “% Survival” value ([3]; day 3)?
A: 10%

Q: And the survivors/total ([3]; day 3)?
A: 3/30

Q: What about the “% Survival” value ([3]; day 4) of the same molecule?
A: 10%

Q: What about the survivors/total ([3]; day 4) of the same molecule?
A: 3/30

Q: And the “activity when administered ip prior to a lethal ip injection of endotoxin” value ([3]; ip, in words)?
A: some activity

Q: What about the “% Survival” value [4] of the same molecule?
A: 43%
